Measurements as given in patent EP4678638A1, “NEW E3 UBIQUITIN LIGASE LIGAND, PROTEIN DEGRADATION AGENT AND USE THEREOF” (priority 2023, dated 2024).

Biological target: T1, human Cereblon WT GST-tagged protein (Homo sapiens, UniProt Q96SW2)
T1 construct: purchased CISBIO 64BDCRBNPEH
Assay: CRBN binding, HTRF (CEREBLON BINDING kit)
Conditions: Table II-2, CRBN binding screening, HTRF; for inhibition at 0.5 µM: read-out: Inhibition rate (%) at 0.5µM; for inhibition at 2 µM: read-out: Inhibition rate (%) at 2 µM
Description: The CEREBLON BINDING kits (specification: 10,000 tests; product number: Catalog # 64BDCRBNPEH; CISBIO company) was used to determine the CRBN binding ability of the compounds to be tested through a HTRF method (homogeneous time-resolved fluorescence). The specific methods are as follows: • 1. […] Then, 2.5 µL of human Cereblon WT GST-tagged protein solution was added to each well. Finally, 5 µL of the thoroughly mixed Thalidomide-Re reagent and GST Eu antibody working solution were added to each of the aforementioned wells. […] The blank control wells were sequentially added with 2.5 µL of diluent #9 (1X) solution, 2.5 µL of binding buffer, and 5 µL of thoroughly mixed Thalidomide-Re reagent and GST Eu antibody working solution. • 4. After sealing and incubating the solutions in the aforementioned wells at room temperature for 3 hours, the […] at emission wavelengths of 620 nm and 665 nm were detected by the HTRF method using a Spark microplate reader (V3.1 SP1).

T1 sequence (Q96SW2 whole entry): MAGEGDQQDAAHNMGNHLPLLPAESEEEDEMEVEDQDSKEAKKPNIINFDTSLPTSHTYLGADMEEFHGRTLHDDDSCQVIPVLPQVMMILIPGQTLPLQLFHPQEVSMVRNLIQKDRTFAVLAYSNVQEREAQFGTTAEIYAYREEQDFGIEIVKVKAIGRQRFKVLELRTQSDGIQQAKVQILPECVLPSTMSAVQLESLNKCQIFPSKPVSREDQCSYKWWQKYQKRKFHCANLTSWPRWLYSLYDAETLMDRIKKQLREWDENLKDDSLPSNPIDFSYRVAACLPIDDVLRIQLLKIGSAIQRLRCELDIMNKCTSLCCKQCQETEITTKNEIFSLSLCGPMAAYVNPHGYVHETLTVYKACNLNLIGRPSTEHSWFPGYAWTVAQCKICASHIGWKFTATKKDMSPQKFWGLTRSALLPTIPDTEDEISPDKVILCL

Row | SMILES | inhibition at 0.5 µM (at 0.5µM) [%] | inhibition at 2 µM (at 2 µM) [%] | Inhibition rate (%) at 0.5µM (at 0.5µM) | Inhibition rate (%) at 2 µM (at 2 µM)
1 | CNC(=O)c1ccccc1Nc1cc(Nc2cc(C)c(C3CCN(Cc4cc(C5CCC(=O)NC5=O)cnc4F)CC3)cc2OC(C)C)ncc1C(F)(F)F (stereo not shown) [GT-07675, 2-((2-((4-(1-((5-(2,6-dioxopiperidin-3-yl)-2-fluoropyridin-3-yl)methyl)piperidin-4-yl)-2-isopropoxy-5-methylphenyl)amino)-5-(trifluoromethyl)pyridin-4-yl)amino)-N-methylbenzamide] | 40 to 53 | 60 to 80 |  | 
2 | Cn1cc(-c2cc(S(C)(=O)=O)ccc2OCc2ccc(C3CCC(=O)NC3=O)c(F)c2)c2cc[nH]c2c1=O (stereo not shown) [GT-04640, 3-(2-fluoro-4-((2-(6-methyl-7-oxo-6,7-dihydro-1H-pyrrolo[2,3-c]pyridin-4-yl)-4-(methylsulfonyl)phenoxy)methyl)phenyl)piperidine-2,6-dione] | 60 to 80 | 80 to 100 |  | 
3 | Cn1cc(-c2cc(S(C)(=O)=O)ccc2OCc2ccc(N3CCC(=O)NC3=O)c(F)c2)c2cc[nH]c2c1=O [GT-04643, 1-(2-fluoro-4-((2-(6-methyl-7-oxo-6,7-dihydro-1H-pyrrolo[2,3-c]pyridin-4-yl)-4-(methylsulfonyl)phenoxy)methyl)phenyl)dihydropyrimidine-2,4(1H,3H)-dione] | 30 to 40 | 60 to 80 |  | 
4 | CNC(=O)c1ccccc1Nc1cc(Nc2cc(C)c(C3CCN(Cc4cccc(N5CCC(=O)NC5=O)c4)CC3)cc2OC(C)C)ncc1C(F)(F)F [GT-07668, 2-((2-((4-(1-(3-(2,4-dioxotetrahydropyrimidin-1(2H)-yl)benzyl)piperidin-4-yl)-2-isopropoxy-5-methylphenyl)amino)-5-(trifluoromethyl)pyridin-4-yl)amino)-N-methylbenzamide] |  |  | a2 (20% < a2 ≤ 30%) | a5 (53% < a5 ≤ 60%)
5 | O=C1CCC(c2cc(CN3CCC(n4cc(NC(=O)c5cnn6ccc(N7C[C@H]8C[C@@H]7CO8)nc56)c(C(F)F)n4)CC3)ccn2)C(=O)N1 (stereo partly drawn) [GT-07776, 5-((1R,4R)-2-oxa-5-azabicyclo[2.2.1]heptan-5-yl)-N-(3-(difluoromethyl)-1-(1-((2-(2,6-dioxopiperidin-3-yl)pyridin-4-yl)methyl)piperidin-4-yl)-1H-pyrazol-4-yl)pyrazolo[1,5-a]pyrimidine-3-carboxamide] | 20 to 30 | 60 to 80 |  | 
6 | CN(Cc1cc(N2CCC(=O)NC2=O)cnc1F)C1CCN(c2ccc(-c3cc(F)c4c(c3)C(=O)N(C(C(=O)Nc3nccs3)c3ncn5c3CCC5)C4)cc2)CC1 (stereo not shown) [GT-07823, 2-(6,7-dihydro-5H-pyrrolo[1,2-c]imidazol-1-yl)-2-(6-(4-(4-(((5-(2,4-dioxotetrahydropyrimidin-1(2H)-yl)-2-fluoropyridin-3-yl)methyl)(methyl)amino)piperidin-1-yl)phenyl)-4-fluoro-1-oxoisoindolin-2-yl)-N-(thiazol-2-yl)acetamide] | 53 to 60 | 80 to 100 |  | 
7 | Cc1ccc(C(=O)Nc2ccc(N3CCC(N(C)Cc4ccc(C5CCC(=O)NC5=O)c(F)c4)CC3)c(C(F)(F)F)c2)cc1C#Cc1cnc2cccnn12 (stereo not shown) [GT-04107, N-(4-(4-((4-(2,6-dioxopiperidin-3-yl)-3-fluorobenzyl)(methyl)amino)piperidin-1-yl)-3-(trifluoromethyl)phenyl)-3-(imidazo[1,2-b]pyridazin-3-ylethynyl)-4-methylbenzamide] | 30 to 40 | 80 to 100 |  | 
8 | Cn1cc(-c2cc(S(C)(=O)=O)ccc2OCc2ccc(N3CCC(=O)NC3=O)cc2)c2cc[nH]c2c1=O [GT-04645, 1-(4-((2-(6-methyl-7-oxo-6,7-dihydro-1H-pyrrolo[2,3-c]pyridin-4-yl)-4-(methylsulfonyl)phenoxy)methyl)phenyl)dihydropyrimidine-2,4(1H,3H)-dione] | 20 to 30 | 53 to 60 |  | 
9 | CC(=O)c1c(C)c2cnc(Nc3ccc(N4CCN(Cc5cncc(N6CCC(=O)NC6=O)c5)CC4)cn3)nc2n(C2CCCC2)c1=O [GT-07482, 1-(5-((4-(6-((6-acetyl-8-cyclopentyl-5-methyl-7-oxo-7,8-dihydropyrido[2,3-d]pyrimidin-2-yl)amino)pyridin-3-yl)piperazin-1-yl)methyl)pyridin-3-yl)dihydropyrimidine-2,4(1H,3H)-dione] | 20 to 30 | 80 to 100 |  | 
10 | O=C1CCN(c2cnc(CN3C[C@H]4C[C@@H]3CN4c3ccc(-c4cc(F)c5c(c4)C(=O)N(C(C(=O)Nc4nccs4)c4ncn6c4CCC6)C5)cc3)cn2)C(=O)N1 (stereo partly drawn) [GT-07826, 2-(6,7-dihydro-5H-pyrrolo[1,2-c]imidazol-1-yl)-2-(6-(4-((1R,4R)-5-((5-(2,4-dioxotetrahydropyrimidin-1(2H)-yl)pyrazin-2-yl)methyl)-2,5-diazabicyclo[2.2.1]heptan-2-yl)phenyl)-4-fluoro-1-oxoisoindolin-2-yl)-N-(thiazol-2-yl)acetamide] | 10 to 20 | 53 to 60 |  | 
11 | CC(=O)c1c(C)c2cnc(Nc3ccc(N4CCN(Cc5cc(C6CCC(=O)NC6=O)cnc5F)CC4)cn3)nc2n(C2CCCC2)c1=O (stereo not shown) [GT-07591, 3-(5-((4-(6-((6-acetyl-8-cyclopentyl-5-methyl-7-oxo-7,8-dihydropyrido[2,3-d]pyrimidin-2-yl)amino)pyridin-3-yl)piperazin-1-yl)methyl)-6-fluoropyridin-3-yl)piperidine-2,6-dione] | 20 to 30 | 80 to 100 |  | 
12 | CC(C)Nc1cc(-n2ccc3cc(C#N)cnc32)ncc1C(=O)NC1CCN(Cc2cc(N3CCC(=O)NC3=O)cnc2F)CC1 [GT-07779, 6-(5-cyano-1H-pyrrolo[2,3-b]pyridin-1-yl)-N-(1-((5-(2,4-dioxotetrahydropyrimidin-1(2H)-yl)-2-fluoropyridin-3-yl)methyl)piperidin-4-yl)-4-(isopropylamino)nicotinamide] | 20 to 30 | 60 to 80 |  | 
13 | CN(C)C(=O)c1cc2cnc(Nc3ccc(N4CCN(Cc5cc(C6CCC(=O)NC6=O)cnc5F)CC4)cn3)nc2n1C1CCCC1 (stereo not shown) [GT-07563, 7-cyclopentyl-2-((5-(4-((5-(2,6-dioxopiperidin-3-yl)-2-fluoropyridin-3-yl)methyl)piperazin-1-yl)pyridin-2-yl)amino)-N,N-dimethyl-7H-pyrrolo[2,3-d]pyrimidine-6-carboxamide] | 20 to 30 | 60 to 80 |  | 
14 | O=C1CCN(c2cnc(F)c(CN3CCN(c4ccc(-c5cc(F)c6c(c5)C(=O)N(C(CNc5nccs5)c5ncn7c5CCC7)C6)cc4)CC3)c2)C(=O)N1 (stereo not shown) [GT-07760, 1-(5-((4-(4-(2-(1-(6,7-dihydro-5H-pyrrolo[1,2-c]imidazol-1-yl)-2-(thiazol-2-ylamino)ethyl)-7-fluoro-3-oxoisoindolin-5-yl)phenyl)piperazin-1-yl)methyl)-6-fluoropyridin-3-yl)dihydropyrimidine-2,4(1H,3H)-dione] | 40 to 53 | 60 to 80 |  | 
